What was measured:
MAO-A (h) = molecular target: T1, MAO-A (h) (Homo sapiens, UniProt P21397); test: Enzyme assay MAO-A (h); type: biochemical; settings: read-out: % Inhibition of Control Values @ 10 μM
T1 construct: human placenta; from tissue; host or cells: human placenta
T1 sequence (P21397 1-527): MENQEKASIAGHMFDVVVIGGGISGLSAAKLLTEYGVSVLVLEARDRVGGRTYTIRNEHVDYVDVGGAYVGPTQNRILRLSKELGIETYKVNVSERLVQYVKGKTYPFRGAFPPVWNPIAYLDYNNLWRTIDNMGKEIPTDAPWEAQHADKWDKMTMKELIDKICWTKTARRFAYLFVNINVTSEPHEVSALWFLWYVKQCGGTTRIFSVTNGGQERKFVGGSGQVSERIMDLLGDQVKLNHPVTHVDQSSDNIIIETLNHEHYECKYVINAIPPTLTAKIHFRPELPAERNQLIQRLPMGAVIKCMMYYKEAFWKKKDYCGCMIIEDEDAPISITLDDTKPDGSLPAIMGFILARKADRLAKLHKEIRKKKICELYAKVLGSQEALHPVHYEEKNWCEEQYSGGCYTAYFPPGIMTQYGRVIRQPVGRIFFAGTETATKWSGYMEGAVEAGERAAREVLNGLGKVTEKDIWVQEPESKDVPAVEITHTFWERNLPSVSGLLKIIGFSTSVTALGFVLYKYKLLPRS
From the text: The enzyme assays provided below will be familiar to those skilled in the art.
Analysis and Expression of Results: The results are expressed as a percent of control specific activity ((measured specific activity/control specific activity)×100) obtained in the presence of the test compounds.

Androgen Receptor = molecular target: T2, Androgen Receptor (Homo sapiens, UniProt P10275); test: Androgen Receptor Nuclear Translocation Assay; type: cell-based; settings: for EC50: agonist mode, PathHunter NHRPro cells, 5 h, read-out: AR Nuclear Translocation Assay Agonist Mode EC50; for IC50: antagonist mode, agonist challenge at EC80, read-out: AR Nuclear Translocation Assay Antagonist Mode IC50
T2 construct: expressed in transfected cells; host or cells: PathHunter NHRPro cell lines
T2 sequence (P10275 1-920): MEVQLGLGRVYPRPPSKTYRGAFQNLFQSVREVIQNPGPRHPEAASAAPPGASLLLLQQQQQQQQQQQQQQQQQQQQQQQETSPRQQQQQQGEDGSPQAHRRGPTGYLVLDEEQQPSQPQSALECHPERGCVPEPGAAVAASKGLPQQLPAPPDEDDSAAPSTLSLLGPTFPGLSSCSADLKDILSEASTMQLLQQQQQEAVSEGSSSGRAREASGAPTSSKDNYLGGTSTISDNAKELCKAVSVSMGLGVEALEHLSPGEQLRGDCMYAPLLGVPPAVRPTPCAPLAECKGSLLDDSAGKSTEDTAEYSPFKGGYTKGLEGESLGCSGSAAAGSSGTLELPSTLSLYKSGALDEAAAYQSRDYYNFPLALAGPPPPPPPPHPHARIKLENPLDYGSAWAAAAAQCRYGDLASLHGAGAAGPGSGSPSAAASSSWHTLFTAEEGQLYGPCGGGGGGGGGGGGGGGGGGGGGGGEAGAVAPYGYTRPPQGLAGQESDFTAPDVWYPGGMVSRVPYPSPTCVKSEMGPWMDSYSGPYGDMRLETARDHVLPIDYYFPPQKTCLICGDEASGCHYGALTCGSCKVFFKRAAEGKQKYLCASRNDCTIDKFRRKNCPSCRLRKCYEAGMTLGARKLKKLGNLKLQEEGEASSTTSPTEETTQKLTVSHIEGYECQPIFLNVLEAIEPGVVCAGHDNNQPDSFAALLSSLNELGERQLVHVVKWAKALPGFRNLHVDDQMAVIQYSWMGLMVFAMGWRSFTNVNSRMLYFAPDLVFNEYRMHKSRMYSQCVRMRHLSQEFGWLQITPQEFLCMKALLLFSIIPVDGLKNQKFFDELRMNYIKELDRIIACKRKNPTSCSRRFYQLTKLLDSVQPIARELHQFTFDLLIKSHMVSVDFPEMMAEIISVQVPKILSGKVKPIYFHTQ
Procedure: Once it was established that the cells were healthy and growing normally, cells were transferred from flasks using trypsin-free cell dissociation buffer and seeded into white walled clear bottom 384-well microplates for compound profiling. For profiling, cells were seeded at a density of 10,000 cells per well in a total volume of 50 μL and were allowed to adhere and recover overnight prior to compound addition. Media contained charcoal-dextran filtered serum to reduce the level of hormones present.
Agonist Format: Intermediate dilution of compound stocks were generated such that 5.5 μL of 10X compound could be added to each well with a final DMSO concentration of 1% of total volume. For profiling compound in agonist mode, the cells were incubated in the presence of compound at 37° C. for 5 h.
Antagonist Format: Agonist dose curves were performed to determine the EC80 value for the following antagonist testing with compounds. 5.5 μL of 10× agonist was added to each well with an equal concentration of vehicle present. EC80 agonist concentration was determined directly from agonist dose curve. For antagonist determination, cells were pre-incubated with antagonist followed by agonist challenge at the EC80 concentration: 5.5 μL of 10× compound added to cells and incubated at 37° C. for 1 h; 5.5 μL of 11× EC80 agonist added to cells and incubated at 37° C. for 5 h.
Signal Detection: After appropriate compound incubation, assay signal was generated through a single addition of 30 μL (50% v/v) of PathHunter Detection reagent cocktail for agonist and antagonist assays respectively followed by 1 h incubation at room temperature. Microplates were read following signal generation with a PerkinElmer ViewLux™ instrument for chemiluminescent signal detection.
Data Analysis: Dose curves in the presence and absence of compound were plotted using GraphPad Prism.

SMILES | inhibition at 10 µM (MAO-A (h)) [%] | EC50 (Androgen Receptor) [µM] | IC50 (Androgen Receptor) [µM]
CC1(C)C(=O)N(c2ccc(C#N)c(C(F)(F)F)c2)C(=O)N1c1ccc(C(N)=O)c(F)c1 [(MIII), 4-(3-(4-cyano-3-(trifluoromethyl)phenyl)-5,5-dimethyl-2,4-dioxoimidazolidin-1-yl)-2-fluorobenzamide] | 14 | > 60 | 16.2
CC1(C)C(=O)N(c2ccc(C#N)c(C(F)(F)F)c2)C(=S)N1c1ccc(C(=O)O)c(F)c1 [(MI), 4-(3-(4-cyano-3-(trifluoromethyl)phenyl)-5,5-dimethyl-4-oxo-2-thioxoimidazolidin-1-yl)-2-fluorobenzoic acid] | -5 | > 60 | > 60
CNC(=O)c1ccc(N2C(=O)N(c3ccc(C#N)c(C(F)(F)F)c3)C(=O)C2(C)C)cc1F [(MIV), 4-(3-(4-cyano-3-(trifluoromethyl)phenyl)-5,5-dimethyl-2,4-dioxoimidazolidin-1-yl)-2-fluoro-N-methylbenzamide] | 11 | > 60 | 11.6
CC1(C)C(=O)N(c2ccc(C#N)c(C(F)(F)F)c2)C(=S)N1c1ccc(C(N)=O)c(F)c1 [(MII), 4-(3-(4-Cyano-3-(trifluoromethyl)phenyl)-5,5-dimethyl-4-oxo-2-thioxoimidazolidin-1-yl)-2-fluorobenzamide] | 0 | > 60 | 3.2
